Reference: patent publication US12331033B2, “Inhibitors of SARM1” (Disarm Therapeutics, Inc., priority 2020, dated 2025)

Target: SARM1 (ARM-SAM-TIR) (Homo sapiens (Human), UniProt Q6SZW1)
Experiment: ARM-SAM-TIR SARM1 IC50 assay (NADase activity, NAD+ cleavage, RapidFire MS)
Type: biochemical
Conditions: ARM-SAM-TIR lysate 5 μg/mL, 2 h pre-incubation, 5 μM NAD+, 2 hr room temperature
Outline: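 Lysate of NRK1-HEK293T cells transfected with full-length ARM-SAM-TIR SARM1 (5 μg/mL final) pre-incubated with compound (1% DMSO) 2 h at room temperature in Dulbecco's PBS. Reaction started with 5 μM NAD+, run 2 hr at room temperature, then stopped with TCA/acetonitrile. NAD+ and ADPR quantified by RapidFire MS.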

Chain of SARM1 (ARM-SAM-TIR) (Q6SZW1 other isoform, or with tags, fused parts or gaps): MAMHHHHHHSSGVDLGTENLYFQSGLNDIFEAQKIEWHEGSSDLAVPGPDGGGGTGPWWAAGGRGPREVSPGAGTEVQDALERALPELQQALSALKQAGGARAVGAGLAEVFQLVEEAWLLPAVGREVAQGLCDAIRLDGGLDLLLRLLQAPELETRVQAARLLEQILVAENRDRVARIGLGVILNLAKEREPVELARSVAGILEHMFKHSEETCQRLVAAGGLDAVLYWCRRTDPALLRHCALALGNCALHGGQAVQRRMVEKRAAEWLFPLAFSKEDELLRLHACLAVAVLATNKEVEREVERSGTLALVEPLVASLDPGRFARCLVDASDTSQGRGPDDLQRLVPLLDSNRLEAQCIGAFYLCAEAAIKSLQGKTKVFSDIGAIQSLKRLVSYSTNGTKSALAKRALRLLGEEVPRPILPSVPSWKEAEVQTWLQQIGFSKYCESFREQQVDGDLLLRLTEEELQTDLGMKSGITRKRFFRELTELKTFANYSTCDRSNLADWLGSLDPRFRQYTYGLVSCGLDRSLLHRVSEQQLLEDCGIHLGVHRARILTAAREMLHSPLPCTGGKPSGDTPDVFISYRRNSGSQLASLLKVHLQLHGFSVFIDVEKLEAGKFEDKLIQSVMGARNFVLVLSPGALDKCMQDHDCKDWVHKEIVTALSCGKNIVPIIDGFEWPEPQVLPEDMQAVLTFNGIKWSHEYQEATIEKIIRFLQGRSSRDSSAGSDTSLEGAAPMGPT

Structure (SMILES)	IC50 [µM]
CC1(c2c(-c3ccnnc3)n[nH]c2NC(=O)CCc2ccc(Cl)nc2)CC1 [Example 321]	< 5
Cc1cnccc1-c1n[nH]c(NC(=O)CCc2ccc(Cl)nc2)c1C [Example 322]	< 5
Cc1c(-c2ccncc2)n[nH]c1NC(=O)C1Cc2ccccc2CO1 (centres unmarked) [Example 323]	5 to 15
O=C(CCc1ccc(Cl)cc1)Nc1cc(-c2c(F)cncc2Br)n[nH]1 [Example 324]	5 to 15
N#Cc1c(-c2ccncc2F)n[nH]c1NC(=O)CCc1ccc(Cl)cc1 [Example 325]	< 5
